From PubChem BioAssay AID2060335 (Molecular Pharmacology Branch, DTP, NCI, 2025)
Several values for one entry are separate records, joined by “and”; a condition that tells them apart may be missing. Equal values may be shown once.

Test system: DU-145 multicell spheroids with HUVEC/MSC, viability
Experiment: Anticancer human tumor DU-145 cell line growth inhibition [IpAb];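 also: spheroids exposed to agents for seven days before measurement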;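 as to viability, T/C: percent of DMSO vehicle control viability so 100% = untreated level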
Settings: for viability, T/C: stronger effect = lower value
Summary of the method: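 Spheroids of 60% malignant cells, 25% HUVEC and 15% MSC were exposed to targeted agents combined with ipatasertib or abemaciclib. Doses started at or near clinical Cmax (10 microM when unknown) and fell in half-log steps.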

[1] = curve of first compound, second compound 0.01 µM
[2] = curve of first compound, second compound 0.0316 µM
[3] = curve of first compound, second compound 0.1 µM
[4] = curve of first compound, second compound 0.316 µM
[5] = curve of first compound, second compound 1 µM
[6] = second compound 0.1 µM, first compound 0.0316 µM
[7] = second compound 0.1 µM, first compound 0.1 µM
[8] = second compound 0.1 µM, first compound 0.316 µM
[9] = second compound 0.1 µM, first compound 1 µM
[10] = second compound 0.1 µM, first compound 3.16 µM
[11] = second compound 0.1 µM, first compound 10 µM
[12] = second compound 0.316 µM, first compound 0.0316 µM
[13] = second compound 0.316 µM, first compound 0.1 µM
[14] = second compound 0.316 µM, first compound 0.316 µM
[15] = second compound 0.316 µM, first compound 1 µM
[16] = second compound 0.316 µM, first compound 3.16 µM
[17] = second compound 0.316 µM, first compound 10 µM
[18] = second compound 1 µM, first compound 0.0316 µM
[19] = second compound 1 µM, first compound 0.1 µM
[20] = second compound 1 µM, first compound 0.316 µM
[21] = second compound 1 µM, first compound 1 µM
[22] = second compound 1 µM, first compound 3.16 µM
[23] = second compound 1 µM, first compound 10 µM

Structure (SMILES): Cc1nc(NC(=O)N2CCCC2C(N)=O)sc1-c1ccnc(C(C)(C)C(F)(F)F)c1 (configuration not stated)
- viability, T/C (compound 0.0316 µM): 81% and 75.7%
- viability, T/C (compound 0.1 µM): 60.6% and 54.3%
- viability, T/C (compound 0.316 µM): 39.9% and 37.3%
- viability, T/C (compound 1 µM): 29% and 31.4%
- viability, T/C (compound 3.16 µM): 21.7% and 20.9%
- viability, T/C (compound 10 µM): 8.51% and 8.2%
- IC50 (curve of compound): 192 nM and 160 nM

Structure (SMILES): CC(C)(C)c1cnc(CSc2cnc(NC(=O)C3CCNCC3)s2)o1 + CCN1CCN(Cc2ccc(Nc3ncc(F)c(-c4cc(F)c5nc(C)n(C(C)C)c5c4)n3)nc2)CC1
- IC50 [1]: 104 nM
- IC50 [2]: 82.2 nM
- IC50 [3]: 66.6 nM
- IC50 [4]: 60.4 nM
- IC50 [5]: 34.9 nM
- viability, T/C (second compound 0.01 µM, first compound 0.00949 µM): 108%
- viability, T/C (second compound 0.01 µM, first compound 0.03 µM): 98.6%
- viability, T/C (second compound 0.01 µM, first compound 0.0949 µM): 54%
- viability, T/C (second compound 0.01 µM, first compound 0.3 µM): 8.61%
- viability, T/C (second compound 0.01 µM, first compound 0.949 µM): 6.08%
- viability, T/C (second compound 0.01 µM, first compound 3 µM): 5.15%
- viability, T/C (second compound 0.0316 µM, first compound 0.00949 µM): 94.3%
- viability, T/C (second compound 0.0316 µM, first compound 0.03 µM): 88.2%
- viability, T/C (second compound 0.0316 µM, first compound 0.0949 µM): 44.7%
- viability, T/C (second compound 0.0316 µM, first compound 0.3 µM): 8.69%
- viability, T/C (second compound 0.0316 µM, first compound 0.949 µM): 5.54%
- viability, T/C (second compound 0.0316 µM, first compound 3 µM): 5.3%
- viability, T/C (second compound 0.1 µM, first compound 0.00949 µM): 87.6%
- viability, T/C (second compound 0.1 µM, first compound 0.03 µM): 77.4%
- viability, T/C (second compound 0.1 µM, first compound 0.0949 µM): 38.1%
- viability, T/C (second compound 0.1 µM, first compound 0.3 µM): 7.33%
- viability, T/C (second compound 0.1 µM, first compound 0.949 µM): 5.93%
- viability, T/C (second compound 0.1 µM, first compound 3 µM): 4.44%
- viability, T/C (second compound 0.316 µM, first compound 0.00949 µM): 77.5%
- viability, T/C (second compound 0.316 µM, first compound 0.03 µM): 75.4%
- viability, T/C (second compound 0.316 µM, first compound 0.0949 µM): 33.8%
- viability, T/C (second compound 0.316 µM, first compound 0.3 µM): 7.83%
- viability, T/C (second compound 0.316 µM, first compound 0.949 µM): 5.35%
- viability, T/C (second compound 0.316 µM, first compound 3 µM): 4.86%
- viability, T/C (second compound 1 µM, first compound 0.00949 µM): 67.8%
- viability, T/C (second compound 1 µM, first compound 0.03 µM): 55.7%
- viability, T/C (second compound 1 µM, first compound 0.0949 µM): 12.7%
- viability, T/C (second compound 1 µM, first compound 0.3 µM): 6.89%
- viability, T/C (second compound 1 µM, first compound 0.949 µM): 4.71%
- viability, T/C (second compound 1 µM, first compound 3 µM): 4.63%

Structure (SMILES): C=CCn1c(=O)c2cnc(Nc3ccc(N4CCN(C)CC4)cc3)nc2n1-c1cccc(C(C)(C)O)n1 + CC(C)NCC(C(=O)N1CCN(c2ncnc3c2C(C)CC3O)CC1)c1ccc(Cl)cc1
- IC50 [3]: 82.7 nM
- IC50 [4]: < 31.6 nM
- IC50 [5]: < 31.6 nM
- IC50 (curve of first compound, second compound 3.16 µM): < 31.6 nM
- IC50 (curve of first compound, second compound 10 µM): < 31.6 nM
- viability, T/C [6]: 71%
- viability, T/C [7]: 47.1%
- viability, T/C [8]: 26.5%
- viability, T/C [9]: 23.9%
- viability, T/C [10]: 17.5%
- viability, T/C [11]: 13.7%
- viability, T/C [12]: 44.6%
- viability, T/C [13]: 36.7%
- viability, T/C [14]: 19.3%
- viability, T/C [15]: 18.8%
- viability, T/C [16]: 15.8%
- viability, T/C [17]: 12.9%
- viability, T/C [18]: 32.7%
- viability, T/C [19]: 26.6%
- viability, T/C [20]: 13.3%
- viability, T/C [21]: 15.1%
- viability, T/C [22]: 14.3%
- viability, T/C [23]: 12.6%
- viability, T/C (second compound 3.16 µM, first compound 0.0316 µM): 23%
- viability, T/C (second compound 3.16 µM, first compound 0.1 µM): 16.1%
- viability, T/C (second compound 3.16 µM, first compound 0.316 µM): 10%
- viability, T/C (second compound 3.16 µM, first compound 1 µM): 12%
- viability, T/C (second compound 3.16 µM, first compound 3.16 µM): 11.8%
- viability, T/C (second compound 3.16 µM, first compound 10 µM): 10.4%
- viability, T/C (second compound 10 µM, first compound 0.0316 µM): 16.9%
- viability, T/C (second compound 10 µM, first compound 0.1 µM): 14%
- viability, T/C (second compound 10 µM, first compound 0.316 µM): 8.4%
- viability, T/C (second compound 10 µM, first compound 1 µM): 10.6%
- viability, T/C (second compound 10 µM, first compound 3.16 µM): 9.3%
- viability, T/C (second compound 10 µM, first compound 10 µM): 9.33%

Structure (SMILES): Cn1ncc(Cl)c1-c1cc(C(=O)NC(CN)Cc2cccc(F)c2)sc1Cl (configuration not stated) + CCN1CCN(Cc2ccc(Nc3ncc(F)c(-c4cc(F)c5nc(C)n(C(C)C)c5c4)n3)nc2)CC1
- IC50 [1]: 135 nM
- IC50 [2]: 96.7 nM
- IC50 [3]: 80.3 nM
- IC50 [4]: 79.6 nM
- IC50 [5]: 190 nM
- viability, T/C (second compound 0.01 µM, first compound 0.0316 µM): 84.7%
- viability, T/C (second compound 0.01 µM, first compound 0.1 µM): 56.3%
- viability, T/C (second compound 0.01 µM, first compound 0.316 µM): 30.6%
- viability, T/C (second compound 0.01 µM, first compound 1 µM): 22.5%
- viability, T/C (second compound 0.01 µM, first compound 3.16 µM): 13.7%
- viability, T/C (second compound 0.01 µM, first compound 10 µM): 1.16%
- viability, T/C (second compound 0.0316 µM, first compound 0.0316 µM): 74.1%
- viability, T/C (second compound 0.0316 µM, first compound 0.1 µM): 48.9%
- viability, T/C (second compound 0.0316 µM, first compound 0.316 µM): 29.6%
- viability, T/C (second compound 0.0316 µM, first compound 1 µM): 19.6%
- viability, T/C (second compound 0.0316 µM, first compound 3.16 µM): 14%
- viability, T/C (second compound 0.0316 µM, first compound 10 µM): 0.22%
- viability, T/C [6]: 64.4%
- viability, T/C [7]: 47.8%
- viability, T/C [8]: 29.4%
- viability, T/C [9]: 19%
- viability, T/C [10]: 13.4%
- viability, T/C [11]: 0.82%
- viability, T/C [12]: 60%
- viability, T/C [13]: 48.5%
- viability, T/C [14]: 32.8%
- viability, T/C [15]: 23.4%
- viability, T/C [16]: 16.4%
- viability, T/C [17]: 0.85%
- viability, T/C [18]: 60.3%
- viability, T/C [19]: 52%
- viability, T/C [20]: 50.2%
- viability, T/C [21]: 30.9%
- viability, T/C [22]: 25.8%
- viability, T/C [23]: 0.53%
